# Experimental data reported in patent publication US20240109925A1, “Enhanced Anti-Proliferative and Antitumor Immune Effects of Mitochondria-Targeted Hydroxyurea” (The Medical College of Wisconsin, Inc., priority 2021, published 2024).
# Where two headings read alike, the source gives them in different places.
# Experiments:
# [1] = system: HCT116 human colon cancer cells; test: Cell proliferation (cell confluence), IncuCyte Live-Cell Analysis system; type: cell-based; conditions: for Cell Confluence (%): when control cells reached ~90% confluence, n = 4; for IC50: Homo sapiens, at ~90% confluence of control
# Text: FIG. 1. Effects of HU and Mito-HUs on proliferation of HCT116 human colon cancer cells (A) Effects of HU and Mito-HUs on the proliferation of HCT116 cells were monitored in the IncuCyte Live-Cell Analysis system. The IncuCyte Analyzer provides real-time updates on cell confluence, based on segmentation of high definition-phase contrast images. Representative cell images were shown as segmentation mask illustrated in brown when control cells reached 90% confluence (vertical solid black line). (B) The IC50 values were determined at the point at which control cells reached ˜90% confluence (vertical solid black line). Relative cell confluence (control is taken as 100%) is plotted against concentration. Dashed lines represent the fitting curves used to determine the IC50 values as indicated. Data shown are the means & SD.
# The following cell lines were obtained from the American Type Culture Collection (Manassas, VA), where they were regularly authenticated: HCT116 (ATCC Cat #CRL-247, human colon cancer cells) and MiaPaCa-2 (ATCC Cat #CRL-1420, human pancreatic cancer cells). All cells were cultured in a humidified incubator at 37° C. and 5% carbon dioxide. HCT116 cells were maintained in RPMI 1640 medium (Thermo Fisher Scientific, Cat #11875), supplemented with 10% fetal bovine serum. MiaPaCa-2 cells were maintained in Dulbecco's Modified Eagle Medium (Thermo Fisher Scientific, Waltham, MA; Cat #11965) supplemented with 10% fetal bovine serum. All cells were stored in liquid nitrogen and used within 20 passages after thawing.
# The IncuCyte Live-Cell Analysis system (Essen Bioscience Inc., Ann Arbor, MI) was used to monitor cell proliferation (Cheng et al., 2013, 2016; Boyle et al., 2018). As shown in previous publications (Cheng et al., 2013, 2016), this imaging system is probe-free and noninvasive, and enables continuous monitoring of cell confluence over several days. The increase in the percentage of cell confluence was used as a surrogate marker of cell proliferation. In a 96-well plate, cells were plated at 1,000 cells per well in triplicates and left to adhere overnight. Cells were then treated with HU and Mito-HUs, and the cell confluency was recorded over several days in the IncuCyte Live-Cell Analysis system.
# CD4 T cells = test: In vitro differentiation of CD4 T cells (Treg / IFNg-YFP Teff), flow cytometry; type: cell-based, mouse; conditions: for Concentration with Maximum Effect on IFN -YFP: tested concentration with maximum effect, six days culture
# Text: FIG. 4. Effects of Mito10-HU on in vitro differentiation of CD4 T cells (A) The gating strategy reflects data from one DMSO control sample. First, the total population of cells was gated (FSC-A vs SSC-A). Then, single cells were gated (SSC-W vs SSC-H). Within the single cell population, we gated on the live CD4 T cells using a fixable LIVE/DEAD stain (CD4 vs DEAD). Within the live CD4 T cells we gated on CD25+FOXP3+Tregs (FOXP3 vs CD25), as well as IFNg-YFP+CD4 T cells (IFNg-YFP vs CD4). (B) Live CD4 T cells were gated within the single cell populations, at varying concentrations of Mito10-HU, along with DMSO controls (B, top row). CD25+FOXP3+Tregs (B, middle row) and IFNg-YFP+CD4 T cells (B, bottom row) were gated within the live CD4 T cell populations, at varying concentrations of Mito10-HU, along with DMSO controls. (C) Effects of Mito10-HU on live CD4+T cells within the lymphocyte gate (C, left), the frequency of FOXP3+CD25+cells within the live CD4+T cells (C, middle), and Teff function is shown as the frequency of IFNg-YFP positive cells within the live CD4+T cells (C, right). Data shown are the means & SD, n=2 per treatment group. *p<0.05, **p<0.01 vs control.
# To differentiate CD4^+ T cells into a Treg phenotype, splenocytes from SMARTA triple-reporter mice were processed and the red blood cells were lysed using an ACK (ammonium-chloride-potassium) lysis buffer. The cells were then activated with […] GP61-80 peptide (GenScript, Piscataway, NJ) and 5 ng/mL TGF-b1 (Shenandoah Biotechnology, Inc., Warwick, PA). After one day of initial skewing, […] IL-2 along with HU or Mito-HUs (n=4-20) of varying concentrations were added to the culture. Cells were cultured for six days and split once cells reached confluency; cells were replenished with IL-2 and compound (i.e., MitoHUs) accordingly. After six days in culture, cells were stained to assess the viability and phenotypic analysis via flow cytometry. LIVE/DEAD fixable violet or aqua dead cell stain (Invitrogen) was used to assess cell viability. Only live cells were gated out for further functional analysis by using a fixable LIVE/DEAD stain. First, total population of cells was gated (FSC-A vs SSC-A). Then, single cells were gated (SSC-W vs SSC-H). Within the single cell population, we gated on the live CD4 T cells using a fixable Live/Dead stain (CD4 vs DEAD). Within the live CD4 T cells, we gated on CD25^+FOXP3^+ Tregs (FOXP3 vs CD25), as well as IFNg-YFP^+ CD4 T cells (IFNg-YFP vs CD4).
# The following antibodies were used for flow cytometry staining: APC-Cy7 anti-mouse CD4 (clone: GK1.5; BioLegend, San Diego, CA), APC anti-mouse CD25 (clone: PC61; BioLegend), and PE anti-mouse FOXP3 (clone: FJK-165; eBioscience, San Diego, CA). Flow cytometry data were acquired using a BD Celesta flow cytometer (BD Biosciences, San Jose, CA) flow cytometer and analyzed using FlowJo (Treestar, Inc., Ashland, OR) (FlowJo Software, 2019).
# [2] = HCT-116, mean ± SD, HCT116, read-out: IC50 Cell Proliferation (FIG. 1)
# [3] = HCT-116, HCT116, read-out: IC50 proliferation of HCT116 cells
SMILES,Cell Confluence (%) ([1]; 10 μM),Cell Confluence (%) ([1]; 30 μM),Cell Confluence (%) ([1]; 100 μM),"IC50 [1, 2]",Concentration with Maximum Effect on IFN -YFP (CD4 T cells),inhibition of proliferation of HCT116 cells ([1]; HCT116),"IC50 [1, 3]",other results
"NC(=O)NO [HU, Hydroxyurea]",89.91%,91.61%,66.96%,180 ± 6.7 µM,200 µM,–,–,Cell Confluence (%) ([1]; 150 μM): 48.62%; Cell Confluence (%) ([1]; 200 μM): 31.90%; Cell Confluence (%) ([1]; 250 μM): 22.99%; Cell Confluence (%) ([1]; 300 μM): 17.30%; Cell Confluence (%) ([1]; 400 μM): 11.42%; Cell Confluence (%) ([1]; 500 μM): 8.79%; Cell Confluence (%) ([1]; 1000 μM): 5.40%; Cell Confluence (%) ([1]; 3000 μM): 3.43%
"NC(=O)NOCCCCCCCCCC[P+](c1ccccc1)(c1ccccc1)c1ccccc1.O=C([O-])C(F)(F)F [Mito10-HU, 10-[(carbamoylamino)oxy]-decyltriphenylphosphonium trifluoroacetate]",26.84%,1.74%,1.53%,8.5 ± 0.41 µM,12.5 µM,dose-dependently inhibited proliferation,8 µM,"Cell Confluence (%) ([1]; 0.1 μM): 82.13%; Cell Confluence (%) ([1]; 0.3 μM): 84.69%; Cell Confluence (%) ([1]; 1 μM): 83.91%; Cell Confluence (%) ([1]; 3 μM): 64.31%; Cell Confluence (%) ([1]; 5 μM): 67.01%; Cell Confluence (%) ([1]; 12.5 μM): 13.75%; Cell Confluence (%) ([1]; 15 μM): 8.68%; Cell Confluence (%) ([1]; 20 μM): 3.45%; inhibition of cell proliferation, combination with AZD-3965 ([1]; Mito10-HU (5 μM) together with AZD-3965 (100 μM), HCT-116): synergistically inhibited; inhibition of cell proliferation, combination with syrosingopine (combination index) ([1]; Mito10-HU (5 μM) together with syrosingopine (7.5 μM), HCT116): synergistic; FOXP3+ Treg differentiation (CD4 T cells; six days): inhibited FOXP3^+ Treg differentiation and/or survival; Teff IFNg production (CD4 T cells; six days): promoted Teff IFNg production"
"NC(=O)NOCCCCCCCCCCCC[P+](c1ccccc1)(c1ccccc1)c1ccccc1.O=C([O-])C(F)(F)F [Mito12-HU, 12-[(carbamoylamino)oxy]-dodecyltriphenylphosphonium trifluoroacetate]",–,–,–,1.8 ± 0.05 µM,10 µM,dose-dependently inhibited proliferation,1.8 µM,–
"NC(=O)NOCCCCCCCCCCCCCC[P+](c1ccccc1)(c1ccccc1)c1ccccc1.O=C([O-])C(F)(F)F [Mito14-HU, 14-[(carbamoylamino)oxy]-tetradecyltriphenylphosphonium trifluoroacetate]",–,–,–,0.9 ± 0.04 µM,1.5 µM,dose-dependently inhibited proliferation,0.74 µM,–
"NC(=O)NOCCCCCCCCCCCCCCCC[P+](c1ccccc1)(c1ccccc1)c1ccccc1.O=C([O-])C(F)(F)F [Mito16-HU, 16-[(carbamoylamino)oxy]-hexadecyltriphenylphosphonium trifluoroacetate]",–,–,–,0.5 ± 0.01 µM,0.4 µM,dose-dependently inhibited proliferation,0.51 µM,–
"NC(=O)NOCCCCCCCCCCCCCCCCCCCC[P+](c1ccccc1)(c1ccccc1)c1ccccc1.O=C([O-])C(F)(F)F [Mito20-HU, 20-[(carbamoylamino)oxy]-eicosanyltriphenylphosphonium trifluoroacetate]",–,–,–,0.23 ± 0.02 µM,0.3 µM,dose-dependently inhibited proliferation,0.23 µM,lowest concentration with maximal effect on Teff activation (CD4 T cells; IFNg-YFP): 0.3 mM
